In brackets after ≈: the same amount, converted by molar mass. Blank lines part the entries; values can stand above or below the molecule they belong to. Activity calls are given as the source filed them. No cut-off for these calls is given here.
Columns and labels:
MCF7 [1] = assay: Cell cycle arrest in human MCF7 cells assessed as accumulation at G0/G1 phase at 10 uM after 24 hrs by propidium iodide staining-based flow cytometric analysis (reference value: 60.01%); format: functional
MCF7 [2] = assay: Cell cycle arrest in human MCF7 cells assessed as accumulation at S phase at 10 uM after 24 hrs by propidium iodide staining-based flow cytometric analysis (reference value: 14.35%); format: functional
MCF7 [3] = assay: Induction of autophagy in human MCF7 cells assessed as increase in cytoplasmic acidic vesicular organelles at 5 to 10 uM after 72 hrs by AO staining-based fluorescence microscopic analysis; format: functional, cell-based
MCF7 [4] = assay: Cell cycle arrest in human MCF7 cells assessed as accumulation at S phase at 10 uM after 48 hrs by propidium iodide staining-based flow cytometric analysis (reference value: 14.35%); format: functional
MCF7 [5] = assay: Cell cycle arrest in human MCF7 cells assessed as accumulation at subG1 phase at 10 uM after 48 hrs by propidium iodide staining-based flow cytometric analysis (reference value: 4.11%); format: functional
MCF7 [6] = assay: Induction of autophagy in human MCF7 cells assessed as increase in cytoplasmic acidic vesicular organelles at 5 to 10 uM after 72 hrs by MDC staining-based fluorescence microscopic analysis; format: functional, cell-based
MCF7 [7] = assay: Selectivity ratio of IC50 for human […] cells to IC50 for human MCF7 cells; format: functional
MCF7 [8] = assay: Cell cycle arrest in human MCF7 cells assessed as accumulation at subG1 phase at 10 uM after 24 hrs by propidium iodide staining-based flow cytometric analysis (reference value: 4.11%); format: functional
MCF7 [9] = assay: Induction of autophagy in human MCF7 cells assessed as autophagic cells at 5 uM after 72 hrs by MDC staining-based flow cytometry (reference value: 2.14%); format: functional
MCF7 [10] = assay: Cell cycle arrest in human MCF7 cells assessed as accumulation at G2/M phase at 10 uM after 72 hrs by propidium iodide staining-based flow cytometric analysis (reference value: 20.62%); format: functional
MCF7 [11] = assay: Antiproliferative activity against human MCF7 cells after 3 days by MTT assay; format: functional, cell-based; details: MCF7, 72 h
MCF7 [12] = assay: Selectivity ratio of IC50 for human HeLa cells to IC50 for human MCF7 cells; format: functional
Bel-7402 = assay: Antiproliferative activity against human Bel7402 cells after 3 days by MTT assay; format: functional, cell-based; details: Bel-7402, 72 h
MCF7 [13] = assay: Induction of autophagy in human MCF7 cells assessed as autophagic cells at 10 uM after 72 hrs by MDC staining-based flow cytometry (reference value: 2.14%); format: functional
MCF7 [14] = assay: Induction of autophagy in human MCF7 cells assessed as decrease in LC3-1 level at 5 to 10 uM after 48 hrs by Western blot analysis; format: functional, cell-based
[15] = Thermodynamic solubility of the compound in phosphate buffer at pH 7.4 at 1 mg after 10 mins by HPLC -UV analysis; format: physicochemical; details: read-out: Therm_solubility
HeLa = assay: Antiproliferative activity against human HeLa cells after 3 days by MTT assay; format: functional, cell-based; details: 72 h
MCF7 [16] = assay: Cell cycle arrest in human MCF7 cells assessed as accumulation at G0/G1 phase at 10 uM after 48 hrs by propidium iodide staining-based flow cytometric analysis (reference value: 60.01%); format: functional
MCF7 [17] = assay: Cell cycle arrest in human MCF7 cells assessed as accumulation at G2/M phase at 10 uM after 48 hrs by propidium iodide staining-based flow cytometric analysis (reference value: 20.62%); format: functional
MCF7 [18] = assay: Cell cycle arrest in human MCF7 cells assessed as accumulation at G2/M phase at 10 uM after 24 hrs by propidium iodide staining-based flow cytometric analysis (reference value: 20.62%); format: functional
MCF7 [19] = assay: Cell cycle arrest in human MCF7 cells assessed as accumulation at S phase at 10 uM after 72 hrs by propidium iodide staining-based flow cytometric analysis (reference value: 14.35%); format: functional
MCF7 [20] = assay: Ratio of IC50 for cisplatin to compound IC50 for human MCF7 cells after 3 days by MTT assay; format: functional
MCF7 [21] = assay: Induction of autophagy in human MCF7 cells assessed as increase in […] level at 5 to 10 uM after 48 hrs by Western blot analysis; format: functional, cell-based
MCF7 [22] = assay: Cell cycle arrest in human MCF7 cells assessed as accumulation at G0/G1 phase at 10 uM after 72 hrs by propidium iodide staining-based flow cytometric analysis (reference value: 60.01%); format: functional
MCF7 [23] = assay: Cell cycle arrest in human MCF7 cells assessed as accumulation at subG1 phase at 10 uM after 72 hrs by propidium iodide staining-based flow cytometric analysis (reference value: 4.11%); format: functional

IC50 (MCF7 [11]): 6.06 µM
IC50 (Bel-7402): 32.6 µM
solubility thermodynamic at 10 min [15]: 223 µg/mL (≈ 356 µM)
IC50 (HeLa): 27 µM
Structure (SMILES): O=C(Cc1ccccc1OCc1ccccc1)N[C@H](Cc1ccccc1)C(=O)OC[C@@H](Cc1ccccc1)NC(=O)c1ccccc1
Activity (MCF7 [1]): 59.85%
Activity (MCF7 [2]): 15.98%
Activity (MCF7 [3]): Active
Activity (MCF7 [4]): 17.85%
Activity (MCF7 [5]): 3.16%
Activity (MCF7 [6]): Active
Ratio IC50 (MCF7 [7]): 5
Activity (MCF7 [8]): 1.76%
Activity (MCF7 [9]): 15.62%
Activity (MCF7 [10]): 20.38%
Ratio IC50 (MCF7 [12]): 5
Activity (MCF7 [13]): 52.62%
Activity (MCF7 [14]): Active
Activity (MCF7 [16]): 59.4%
Activity (MCF7 [17]): 17.07%
Activity (MCF7 [18]): 21.65%
Activity (MCF7 [19]): 16.69%
Ratio IC50 (MCF7 [20]): 1.5
Activity (MCF7 [21]): Active
Activity (MCF7 [22]): 57.08%
Activity (MCF7 [23]): 2.83%

IC50 (MCF7 [11]): 62.9 µM
IC50 (Bel-7402): 54 µM
solubility thermodynamic at 10 min [15]: 524 µg/mL (≈ 977 µM)
IC50 (HeLa): 53.3 µM
Structure (SMILES): O=C(Cc1ccccc1O)N[C@H](Cc1ccccc1)C(=O)OC[C@H](Cc1ccccc1)NC(=O)c1ccccc1

IC50 (MCF7 [11]): 94.8 µM
IC50 (Bel-7402): > 100 µM
solubility thermodynamic at 10 min [15]: 8.85 µg/mL (≈ 17.5 µM)
IC50 (HeLa): > 100 µM
Structure (SMILES): O=C(N[C@H](COC(=O)[C@H](Cc1ccccc1)NC(=O)c1ccccc1)Cc1ccccc1)c1ccccc1 [ASPERPHENAMATE]

IC50 (MCF7 [11]): > 100 µM
IC50 (Bel-7402): > 100 µM
solubility thermodynamic at 10 min [15]: 3.21 µg/mL (≈ 6.34 µM)
IC50 (HeLa): > 100 µM
Structure (SMILES): O=C(N[C@H](COC(=O)[C@@H](Cc1ccccc1)NC(=O)c1ccccc1)Cc1ccccc1)c1ccccc1

IC50 (MCF7 [11]): > 100 µM
IC50 (Bel-7402): > 100 µM
solubility thermodynamic at 10 min [15]: 236 µg/mL (≈ 549 µM)
IC50 (HeLa): > 100 µM
Structure (SMILES): C[C@@H](COC(=O)[C@@H](Cc1ccccc1)NC(=O)c1ccccc1)NC(=O)c1ccccc1

IC50 (MCF7 [11]): 79.5 µM
IC50 (Bel-7402): 89 µM
solubility thermodynamic at 10 min [15]: 79.7 µg/mL (≈ 179 µM)
IC50 (HeLa): > 100 µM
Structure (SMILES): CC(=O)N[C@H](COC(=O)[C@@H](Cc1ccccc1)NC(=O)c1ccccc1)Cc1ccccc1

IC50 (MCF7 [11]): 42.9 µM
IC50 (Bel-7402): 40.2 µM
solubility thermodynamic at 10 min [15]: 2000 µg/mL (≈ 3820 µM)
IC50 (HeLa): 26.1 µM
Structure (SMILES): O=C(N[C@H](COC(=O)[C@@H](Cc1ccccc1)NC(=O)c1cccc(O)c1)Cc1ccccc1)c1ccccc1

IC50 (MCF7 [11]): 11.9 µM
IC50 (Bel-7402): 14.5 µM
solubility thermodynamic at 10 min [15]: 77.4 µg/mL (≈ 148 µM)
IC50 (HeLa): 15.2 µM
Structure (SMILES): O=C(N[C@H](COC(=O)[C@@H](Cc1ccccc1)NC(=O)c1ccccc1O)Cc1ccccc1)c1ccccc1

IC50 (MCF7 [11]): 49 µM
IC50 (Bel-7402): 64.8 µM
solubility thermodynamic at 10 min [15]: 18.2 µg/mL (≈ 34.7 µM)
IC50 (HeLa): 30.4 µM
Structure (SMILES): O=C(N[C@H](COC(=O)[C@H](Cc1ccccc1)NC(=O)c1ccccc1O)Cc1ccccc1)c1ccccc1

IC50 (MCF7 [11]): > 100 µM
IC50 (Bel-7402): > 100 µM
solubility thermodynamic at 10 min [15]: 370 µg/mL (≈ 709 µM)
IC50 (HeLa): > 100 µM
Structure (SMILES): O=C(N[C@H](COC(=O)[C@H](Cc1ccccc1)NC(=O)c1ccc(O)cc1)Cc1ccccc1)c1ccccc1

From ChEMBL document CHEMBL1955745, “Synthesis and in vitro antitumor activity of asperphenamate derivatives as autophagy inducer” (Bioorg Med Chem Lett, 2012)
